Our source for the melting point, EC50 and Emax values is US7005443B1, “5-Hydroxy indazole derivatives for treating glaucoma” (priority 2000, dated 2006).

Read-outs that look alike come from different tables or passages of the source.

The target in one series is T1, 5HT2 receptor (Rattus norvegicus, UniProt P14842).
T1 construct: A7r5 rat vascular smooth muscle cells; endogenous in cells; host or cells: A7r5 rat vascular smooth muscle cells
Kind of series: 5HT2 Functional Assay: Phosphoinositide (PI) turnover assay. The class given is cell-based. Particulars: for Emax: A7R5, read-out: Efficacy (Emax, %). Here is the method: 5HT2 Functional Assay: Phosphoinositide (PI) turnover assay
The relative agonist activity of serotonergic compounds at the 5HT2 receptor can be determined in vitro using the ability of the compounds to stimulate the production of [^3H]inositol phosphates in [^3H]myo-inositol-labeled A7r5 rat vascular smooth muscle cells by their ability to activate the enzyme phospholipase C. These cells are grown in culture plates, maintained in a humidified atmosphere of 5% CO2 and 95% air and fed semi-weekly with Dulbecco's modified Eagle medium (DMEM) containing 4.5 g/l glucose and supplemented with 2 mM glutamine, 10 μg/ml gentamicin, and 10% fetal bovine serum. For the purpose of conducting the phosphoinositide (PI) turnover experiments, the A7r5 cells are cultured in 24-well plates as previously [J. Pharmacol. Expt. Ther., 286, 411 (1998)]. Confluent cells are exposed for 24–30 hrs to 1.5 μCi [^3H]-myo-inositol (18.3 Ci/mmol) in 0.5 ml of serum-free medium. Cells are then rinsed once with DMEM/F-12 containing 10 mM LiCl prior to incubation with the test agent (or solvent as the control) in 1.0 ml of the same medium for 1 hr at 37° C., after which the medium is aspirated and 1 ml of cold 0.1 M formic acid added to stop the reaction. The chromatographic separation of [^3H]-inositol phosphates ([^3H]-IPs) on an AG- 1-X8 column is performed as previously described [J. Pharmacol. Expt. Ther. 286, 411 (1998)] with sequential washes with H2O and 50 mM ammonium formate, followed by elution of the total [^3H]-IPs fraction with 1.2 M ammonium formate containing 0.1 M formic acid. The eluate (4 ml) is collected, mixed with 15 ml scintillation fluid, and the total [3H]-IPs determined by scintillation counting on a beta-counter. Concentration-response data are analyzed by the sigmoidal fit function of the Origin Scientific Graphics software (Microcal Software, Northampton, Mass.) to determine agonist potency (EC50 value) and efficacy (Emax). Serotonin (5HT) is used as a positive control (standard) agonist compound and the efficacy of test compounds is compared to that of 5HT (set at 100%). The concentration of the compound needed to stimulate the production of […] by 50% of the maximum response is termed the EC50 value.

T1 sequence (P14842 whole entry): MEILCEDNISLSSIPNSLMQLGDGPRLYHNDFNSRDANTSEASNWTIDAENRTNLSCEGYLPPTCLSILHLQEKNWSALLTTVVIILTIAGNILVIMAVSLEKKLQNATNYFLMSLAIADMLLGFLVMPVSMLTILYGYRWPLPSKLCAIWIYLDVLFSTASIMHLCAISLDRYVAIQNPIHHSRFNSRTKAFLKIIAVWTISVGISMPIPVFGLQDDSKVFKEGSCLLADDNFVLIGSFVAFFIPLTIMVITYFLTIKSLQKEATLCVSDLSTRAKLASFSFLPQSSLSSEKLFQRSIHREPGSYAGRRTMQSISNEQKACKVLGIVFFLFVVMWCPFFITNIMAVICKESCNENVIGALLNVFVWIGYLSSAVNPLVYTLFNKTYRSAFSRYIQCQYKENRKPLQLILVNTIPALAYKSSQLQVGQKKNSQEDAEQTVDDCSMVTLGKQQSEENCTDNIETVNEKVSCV

`CC(N)Cc1nn(C)c2ccc(O)cc12.O=C(O)/C=C/C(=O)O` (stereo not drawn) [3-(2-Aminopropyl)-1-methyl-1H-indazol-5-ol fumarate] yielded a melting point of 136 to 139 °C. Moreover, on 5HT2 receptor, the EC50 is 778 nM and the Emax turned out to be 98%.

For `CC(N)Cc1n[nH]c2ccc(O)cc12.Cl` (stereo not drawn) [3-(2-Aminopropyl)-1H-indazol-5-ol hydrochloride], the melting point lay within 227 to 230 °C. The Emax on 5HT2 receptor amounted to 97%. Further, the EC50 on 5HT2 receptor ([3H]inositol phosphate production in A7r5 rat vascular smooth muscle cells, read-out: EC50) turned out to be 1210 nM.

What is called melting point is the temperature, or range, at which the solid turns liquid. One may read the EC50 as the midpoint of the concentration-response curve. A word on the Emax: it is the maximal effect, on the per cent scale that the assay sets.
